According to patent US10918633B2, “Method of treating coronavirus” (MyMD Pharmaceuticals, Inc., priority 2015, dated 2021):
Entries after “also recorded” stand apart in the source; their conditions may differ.

Tests used:
[1] = test system: herpes labialis (cold sores), a type of herpes simplex; assay: Treatment of herpes labialis (cold sores) in an individual; assay type: in vivo, human; details: 100 mg dose upon first feeling the onset of a cold sore
Description: This example illustrates administering isomyosmine to treat herpes labialis (cold sores), a type of herpes simplex occurring on the lip. An individual who experiences periodic outbreaks of herpes labialis was administered a 100 mg dose of isomyosmine upon first feeling the onset of a cold sore.

MAO-A = biological target: T1, MAO-A (Homo sapiens, UniProt P21397); assay: MAO-Glo luminescent assay, MAO-A inhibition; assay type: biochemical; details: FIG. 1
T1 construct: purchased
T1 sequence (P21397 1-527): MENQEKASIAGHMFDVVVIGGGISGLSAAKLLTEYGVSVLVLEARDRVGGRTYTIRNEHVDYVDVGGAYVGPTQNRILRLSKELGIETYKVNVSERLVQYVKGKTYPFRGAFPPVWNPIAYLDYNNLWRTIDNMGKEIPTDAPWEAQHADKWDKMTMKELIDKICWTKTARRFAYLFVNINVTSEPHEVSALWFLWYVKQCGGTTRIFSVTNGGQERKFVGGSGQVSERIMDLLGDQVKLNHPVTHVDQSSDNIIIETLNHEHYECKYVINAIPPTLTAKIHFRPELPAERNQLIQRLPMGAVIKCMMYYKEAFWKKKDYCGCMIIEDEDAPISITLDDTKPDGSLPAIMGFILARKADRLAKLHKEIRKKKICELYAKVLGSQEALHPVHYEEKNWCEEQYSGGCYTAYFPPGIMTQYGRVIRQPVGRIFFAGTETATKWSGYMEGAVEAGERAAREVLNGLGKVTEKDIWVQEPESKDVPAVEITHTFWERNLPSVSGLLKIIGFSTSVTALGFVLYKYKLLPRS
Description: (§1) This example describes experiments for determining monoamine oxidase (MAO) inhibition for isomyosmine and other alkaloids. MAOs are enzymes located on the outer membrane of mitochondria and are involved in the catabolism of monoamine neurotransmitters. There are two well-characterized isoenzymes: MAO-A, which predominantly catabolizes serotonin and norepinephrine, and MAO-B, which preferentially catabolizes benzylamine and phenylethylamine. Dopamine and tyramine are metabolized by both isoforms.
(§2) To detect the activity of MAO, a luminescent method (MAO-Glo Assay kit, from Promega, Cat #V1401) was used. In this method, a MAO substrate (a derivative of beetle luciferin provided in the kit) is mixed with the compound to be tested (in this case, myosmine and control compounds). Then, the MAO enzymes (either A or B, purchased separately) are added to the mixture and incubated with the reaction for 1 hour at room temperature. The MAO enzymes, if not inhibited by the test compound, will convert the substrate into methyl ester luciferin. Finally, a luciferin detection reagent (provided by the kit) is added (20 minutes at room temperature) to stop the MAO reaction and convert methyl ester luciferin into D-luciferin. […] The luminescent signal is measured and recorded using a luminometer. […]

hydrogen sulfide (H2S) = assay: Serum hydrogen sulfide (H2S) by ELISA in mice with EAE; assay type: in vivo; details: 5 mg/ml isomyosmine in water, FIG. 3A-3B
Description: This example describes an experiment to determine whether treatments with isomyosmine have an effect on hydrogen sulfide (H2S) quantity in mice with experimental autoimmune encephalomyelitis (EAE). Mice were immunized for EAE on day 0 and treated with either vehicle control or 5 mg/ml isomyosmine in water, for the duration of the experiment. Blood was collected, serum was separated and assayed for H2S via Kamiya Biomedical ELISA kit per the manufacturer's instructions. Two different experiments were performed. In the first experiment, blood was collected at the end of disease course. In the second experiment, blood was collected at day 12 after immunization.

MAO-B = biological target: T2, MAO-B (Homo sapiens, UniProt P27338); assay: MAO-Glo luminescent assay, MAO-B inhibition; assay type: biochemical; details: compared with myosmine, anatabine, anabasine, nornicotine; FIG. 2
T2 construct: purchased
T2 sequence (P27338 1-520): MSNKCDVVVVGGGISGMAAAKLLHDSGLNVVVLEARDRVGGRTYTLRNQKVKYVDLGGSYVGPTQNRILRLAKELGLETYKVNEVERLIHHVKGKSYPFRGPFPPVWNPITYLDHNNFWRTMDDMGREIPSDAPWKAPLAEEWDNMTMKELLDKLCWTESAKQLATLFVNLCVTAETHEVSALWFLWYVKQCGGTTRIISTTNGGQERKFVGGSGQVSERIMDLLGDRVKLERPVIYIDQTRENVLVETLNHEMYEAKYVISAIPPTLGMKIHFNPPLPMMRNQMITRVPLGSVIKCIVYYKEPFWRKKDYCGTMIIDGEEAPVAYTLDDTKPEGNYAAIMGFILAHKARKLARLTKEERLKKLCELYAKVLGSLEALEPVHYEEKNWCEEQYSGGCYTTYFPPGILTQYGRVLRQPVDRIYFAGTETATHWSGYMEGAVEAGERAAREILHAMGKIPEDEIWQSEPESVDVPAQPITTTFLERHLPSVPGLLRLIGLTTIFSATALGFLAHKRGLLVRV
Description: as §1, §2

[2] = test system: purified nitrate reductase; assay: Cell-free nitrate reductase inhibition, Griess reaction; assay type: biochemical
Description: Standard concentrations of nitrate were incubated with purified nitrate reductase and vehicle or isomyosmine, and the Griess reaction was used to measure nitrite. Several concentrations of nitrate and two concentrations of isomyosmine were used.

## C1=NC(c2cccnc2)CC1 (centres unmarked) [isomyosmine, 3-(3,4-dihydro-2H-pyrrol-2-yl)-pyridine]
[1]
  prevention of cold sore outbreak: effective to prevent the outbreak of the cold sore
MAO-A; 2 mM concentration (2,000 micromolar), read-out: inhibition of the enzymatic activity of MAO-A
  inhibition at 2000 µM: ~50%
MAO-A; compared with myosmine, anatabine, anabasine, nornicotine
  inhibition of the enzymatic activity of MAO-A (in words, curve position): most potent of the five; also recorded: potent inhibitor
Hydrogen sulfide (H2S); blood collected at day 12 after immunization
  H2S in serum as measured by ELISA: trend toward an increase in H2S
Hydrogen sulfide (H2S); blood collected at the end of disease course
  H2S in serum as measured by ELISA: trend toward an increase in H2S
MAO-B
  inhibition of the activity of MAO-B (in words): most potent among the five alkaloids tested; also recorded: potent inhibitor
[2]; high amount of substrate, system saturated (FIG. 4C)
  inhibition of nitrate reductase: inhibitory effect was reduced
[2]; low amount of substrate (FIG. 4A)
  inhibition of nitrate reductase: most efficiently
